This note sets out measurements from patent USRE47689E1, “Compounds for treating spinal muscular atrophy” (PTC Therapeutics, Inc., priority 2011, dated 2019).

Data set [1] deals with SMN2 minigene (full length SMN2 minigene mRNA containing SMN2 exon 7). Nature of the data set: SMN2 minigene mRNA splicing RT-qPCR assay in cultured cells. It counts as cell-based, human. To be noted: Homo sapiens, HEK293-H; HEK293H cells stably transfected with SMN2-A minigene; 24 hours; 7-point concentration curve; 1.5-fold relative to vehicle-treated cells; read-out: EC1.5x for production of full length SMN2 mRNA. A digest of the protocol:
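Read-out: full-length (exon 7-included) SMN2 minigene mRNA by multiplex RT-qPCR with GAPDH, efficiency-corrected (1+E)^−Ct, GAPDH-normalized and divided by vehicle. Stably transfected HEK293H cells, 24 h compound exposure, duplicates per concentration. Value is EC1.5x, reported as star ranges.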
(In general: Real-time PCR tracks product formation cycle by cycle.)

The next data set deals with Smn protein. Nature of the data set: Smn protein assay in cultured cells (SMN HTRF). To be noted: 48 hours; for EC1.5x (concentration giving 1.5-fold Smn protein increase): SMA Type 1 patient fibroblast cells (GM03813), 7-point concentration curve, SMN HTRF, concentration producing 1.5 times Smn protein vs DMSO vehicle control, read-out: EC1.5x for Smn protein expression; for maximum fold (Fold) increase of Smn protein: SMA patient fibroblast cells, 7-point concentration data, fold increase relative to vehicle control (SMN HTRF). Format: cell-based, human. The method in brief:
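Lysates in RIPA with protease inhibitors are incubated overnight at room temperature with HTRF anti-SMN antibodies. EC1.5x is derived from fold increase in ΔF over vehicle.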

Where only a bound is given, the exact number is not on record here.

As usually defined, the melting point is the temperature, or range, at which the solid turns liquid. Turning to `Cc1cn2cc(-c3cc4ccc(C5CCN(CCCF)CC5)cc4oc3=O)nc2c(C)n1` [Compound 906, 3-(6,8-dimethylimidazo[1,2-a]pyrazin-2-yl)-7-[1-(3-fluoropropyl)piperidin-4-yl]-2H-chromen-2-one], the melting point lay in the range of 195 to 200 °C. For the same molecule, the EC (1.5-fold) in data set [1] is < 0.1 µM. Moreover, in the data set with Smn protein, the EC1.5x (concentration giving 1.5-fold Smn protein increase) is < 300 nM and the “maximum fold (Fold) increase of Smn protein” value (from here on “maximum fold (Fold) increase”) is listed as “***** (fold increase >1.65)”.
In the same order, the values of `Cc1cn2cc(-c3cc4ccc(OC5CCN(CCO)CC5)cc4oc3=O)nc2c(C)n1` [Compound 899, 3-(6,8-dimethylimidazo[1,2-a]pyrazin-2-yl)-7-{[1-(2-hydroxyethyl)piperidin-4-yl]oxy}-2H-chromen-2-one] are 165 to 168 °C, < 0.1 µM, < 300 nM and “***** (fold increase >1.65)”.
`Cc1cn2cc(-c3cc4ccc(N5CC[C@H](NC(=O)OC(C)(C)C)C5)cc4oc3=O)cc2c(C)n1` [Compound 724, tert-butyl {(3S)-1-[3-(1,3-dimethylpyrrolo[1,2-a]pyrazin-7-yl)-2-oxo-2H-chromen-7-yl]pyrrolidin-3-yl}carbamate] registered a melting point of 193 to 196 °C. Moreover, the EC (1.5-fold) in data set [1] fell in the range of 1 to 3 µM. For the same molecule, the “maximum fold (Fold) increase” value with Smn protein is given as “* (maximum fold increase of ≤1.2)”.
`Cc1cn2cc(-c3cc4ccc(N5CCCN(C)CC5)cc4oc3=O)ccc2n1` [Compound 653, 7-(4-methyl-1,4-diazepan-1-yl)-3-(2-methylimidazo[1,2-a]pyridin-6-yl)-2H-chromen-2-one]: the melting point was in the range of 175 to 178 °C. Besides, the EC (1.5-fold) in data set [1] was 0.1 to 0.3 µM. Moreover, the “maximum fold (Fold) increase” value in the data set with Smn protein was “*** (fold increase between >1.35 and ≤1.5)”.
`Cc1csc(-c2cc3ccc(N4CCCNCC4)cc3oc2=O)n1` [Compound 284, 7-(1,4-diazepan-1-yl)-3-(4-methyl-1,3-thiazol-2-yl)-2H-chromen-2-one] showed a melting point of 195 to 203 °C. For the same molecule, the EC (1.5-fold) in data set [1] was in the range of 1 to 3 µM. Besides, in the data set with Smn protein, the “maximum fold (Fold) increase” value is “* (maximum fold increase of ≤1.2)”.
In turn, `CCN1CCN(c2ccc3cc(-c4cn5cc(C)nc(C)c5n4)c(=O)oc3c2)CC1` [Compound 621, 3-(6,8-dimethylimidazo[1,2-a]pyrazin-2-yl)-7-(4-ethylpiperazin-1-yl)-2H-chromen-2-one] registered a melting point of 215 to 217 °C. The EC (1.5-fold) in data set [1] was < 0.1 µM. Moreover, in the data set on Smn protein, the EC1.5x (concentration giving 1.5-fold Smn protein increase) is < 300 nM and the “maximum fold (Fold) increase” value was “***** (fold increase >1.65)”.
`C[C@@H]1CN(c2ccc3cc(-c4cn5ccncc5n4)c(=O)oc3c2)C[C@H](C)N1` [Compound 417, 7-[(3R,5S)-3,5-dimethylpiperazin-1-yl]-3-(imidazo[1,2-a]pyrazin-2-yl)-2H-chromen-2-one] returned a melting point of 248 to 250 °C. For the same molecule, the EC (1.5-fold) in data set [1] lay in the range of 0.1 to 0.3 µM. Moreover, in the data set with Smn protein, the EC1.5x (concentration giving 1.5-fold Smn protein increase) is < 300 nM; the “maximum fold (Fold) increase” value was “*** (fold increase between >1.35 and ≤1.5)”.
In turn, `Cc1cn2cc(-c3cc4ccc(N5C[C@@H](O)[C@H](N(C)C)C5)cc4oc3=O)cc2c(C)n1` [Compound 734, 7-[(3R,4R)-3-(dimethylamino)-4-hydroxypyrrolidin-1-yl]-3-(1,3-dimethylpyrrolo[1,2-a]pyrazin-7-yl)-2H-chromen-2-one] registered a melting point of 173 to 176 °C. For the same molecule, the EC (1.5-fold) in data set [1] was < 0.1 µM. Also, in the data set with Smn protein, the EC1.5x (concentration giving 1.5-fold Smn protein increase) was < 300 nM; the “maximum fold (Fold) increase” value is “**** (fold increase between >1.5 and ≤1.65)”.
As to `Cc1nc(C)c2cc(-c3cc4ccc(N5CCNCC5)cc4oc3=O)sc2n1` [Cpd 705, 3-(2,4-dimethylthieno[2,3-d]pyrimidin-6-yl)-7-(piperazin-1-yl)-2H-chromen-2-one], the melting point is 275 °C (dec.). Also, the EC (1.5-fold) in data set [1] lay within 0.1 to 0.3 µM. In the data set on Smn protein, the “maximum fold (Fold) increase” value was “*** (fold increase between >1.35 and ≤1.5)”.
In turn, `CN1CCN(c2ccc3cc(-c4cn5cc(F)cnc5n4)c(=O)oc3c2)CC1` [Cpd 480, 3-(6-fluoroimidazo[1,2-a]pyrimidin-2-yl)-7-(4-methylpiperazin-1-yl)-2H-chromen-2-one] displayed a melting point of 275 to 280 °C. The EC (1.5-fold) in data set [1] is 3 to 30 µM. Besides, the “maximum fold (Fold) increase” value with Smn protein is recorded as “* (maximum fold increase of ≤1.2)”.
`Cc1cn2cc(-c3cc4ccc(CCCN(C)CCO)cc4oc3=O)nc2c(C)n1` [Compound 880, 3-(6,8-dimethylimidazo[1,2-a]pyrazin-2-yl)-7-{3-[(2-hydroxyethyl)(methyl)amino]propyl}-2H-chromen-2-one]: the melting point is 173 to 176 °C. Also, the EC (1.5-fold) in data set [1] was < 0.1 µM. Besides, in the data set on Smn protein, the EC1.5x (concentration giving 1.5-fold Smn protein increase) was < 300 nM; the “maximum fold (Fold) increase” value is “**** (fold increase between >1.5 and ≤1.65)”.
On to `C[C@H]1CN(c2ccc3cc(-c4ccc5c(c4)OCO5)c(=O)oc3c2)CCN1` [Compound 489, 3-(1,3-benzodioxol-5-yl)-7-[(3S)-3-methylpiperazin-1-yl]-2H-chromen-2-one], for which the melting point was in the range of 134 to 136 °C. For the same molecule, the EC (1.5-fold) in data set [1] lay in the range of 3 to 30 µM. The “maximum fold (Fold) increase” value in the data set with Smn protein was “* (maximum fold increase of ≤1.2)”.
Turning to `Cc1cc(F)c2nc(-c3cc4ccc(N5CCN6CCCCC6C5)cc4oc3=O)cn2c1` (centres unmarked) [Compound 612, 3-(8-fluoro-6-methylimidazo[1,2-a]pyridin-2-yl)-7-(octahydro-2H-pyrido[1,2-a]pyrazin-2-yl)-2H-chromen-2-one], the melting point was 268 to 275 °C. Besides, the EC (1.5-fold) in data set [1] was 0.3 to 1 µM. Also, the “maximum fold (Fold) increase” value with Smn protein was “** (fold increase between >1.2 and ≤1.35)”.
Take `Cc1cn2cc(-c3cc4ccc(N5CCN(C)CC5)cc4oc3=O)cc2cn1` [Compound 590, 7-(4-methylpiperazin-1-yl)-3-(3-methylpyrrolo[1,2-a]pyrazin-7-yl)-2H-chromen-2-one]: the melting point lay within 212 to 214 °C. In addition, the EC (1.5-fold) in data set [1] is < 0.1 µM. In the data set on Smn protein, the EC1.5x (concentration giving 1.5-fold Smn protein increase) was < 300 nM and the “maximum fold (Fold) increase” value was “***** (fold increase >1.65)”.
As to `CC(=O)O.CC[C@H]1CN(c2ccc3cc(-c4cn5cc(C)nc(C)c5n4)c(=O)oc3c2)CCN1C` [Compound 778, 3-(6,8-dimethylimidazo [1,2-a]pyrazin-2-yl)-7-[(3S)-3-ethyl-4-methylpiperazin-1-yl]-2H-chromen-2-one acetate], the melting point lay in the range of 170 to 172 °C. Besides, in data set [1], the EC (1.5-fold) was < 0.1 µM. Besides, in the data set with Smn protein, the EC1.5x (concentration giving 1.5-fold Smn protein increase) is < 300 nM and the “maximum fold (Fold) increase” value is recorded as “***** (fold increase >1.65)”.
In the case of `Cc1cc(F)c2nc(-c3cc4ccc(N5CCCN(C)CC5)cc4oc3=O)cn2c1` [Compound 355, 3-(8-fluoro-6-methylimidazo[1,2-a]pyridin-2-yl)-7-(4-methyl-1,4-diazepan-1-yl)-2H-chromen-2-one], the melting point lay in the range of 233 to 240 °C. Moreover, the EC (1.5-fold) in data set [1] is < 0.1 µM. Besides, in the data set on Smn protein, the EC1.5x (concentration giving 1.5-fold Smn protein increase) lay in the range of 300 to 1000 nM; the “maximum fold (Fold) increase” value was “**** (fold increase between >1.5 and ≤1.65)”.
`Cc1cn2cc(-c3cc4ccc(N5CCN6CCC[C@@H]6C5)cc4oc3=O)nc2c(C)n1` [Compound 632, 3-(6,8-dimethylimidazo[1,2-a]pyrazin-2-yl)-7-[(8aR)-hexahydropyrrolo[1,2-a]pyrazin-2(1H)-yl]-2H-chromen-2-one] displayed a melting point of 255 to 258 °C. In addition, the EC (1.5-fold) in data set [1] was < 0.1 µM. In addition, in the data set with Smn protein, the EC1.5x (concentration giving 1.5-fold Smn protein increase) is < 300 nM and the “maximum fold (Fold) increase” value is reported as “***** (fold increase >1.65)”.
`C[C@@H]1CN(c2ccc3cc(-c4nc5c(Cl)cccc5o4)c(=O)oc3c2)C[C@H](C)N1` [Compound 69, 3-(4-chloro-1,3-benzoxazol-2-yl)-7-[(3R,5S)-3,5-dimethylpiperazin-1-yl]-2H-chromen-2-one] came in with a melting point of 238 to 240 °C. The EC (1.5-fold) in data set [1] lay within 0.1 to 0.3 µM. Also, the “maximum fold (Fold) increase” value in the data set with Smn protein is “* (maximum fold increase of ≤1.2)”.
In turn, `CN1CCN(c2ccc3cc(-c4cn5ccccc5n4)c(=O)oc3c2)CC1` [Compound 72, 3-(imidazo[1,2-a]pyridin-2-yl)-7-(4-methylpiperazin-1-yl)-2H-chromen-2-one] displayed a melting point of 265 to 268 °C. Also, in data set [1], the EC (1.5-fold) was 0.3 to 1 µM. Further, in the data set on Smn protein, the EC1.5x (concentration giving 1.5-fold Smn protein increase) was 300 to 1000 nM; the “maximum fold (Fold) increase” value is “*** (fold increase between >1.35 and ≤1.5)”.
As for `COc1ccc(-c2cc3ccc(N4C[C@@H](C)N[C@@H](C)C4)cc3oc2=O)cc1C` [Compound 543, 7-[(3R,5S)-3,5-dimethylpiperazin-1-yl]-3-(4-methoxy-3-methylphenyl)-2H-chromen-2-one], the melting point is 111 to 113 °C. Also, the EC (1.5-fold) in data set [1] is 1 to 3 µM. Moreover, the “maximum fold (Fold) increase” value with Smn protein is reported as “* (maximum fold increase of ≤1.2)”.
`O=c1oc2cc(N3CCNCC3)ccc2cc1-c1cc2ccccn2n1` [Cpd 187, 7-(piperazin-1-yl)-3-(pyrazolo[1,5-a]pyridin-2-yl)-2H-chromen-2-one] yielded a melting point of 236 to 238 °C. Further, the EC (1.5-fold) in data set [1] was in the range of 0.3 to 1 µM. Also, the “maximum fold (Fold) increase” value with Smn protein is “** (fold increase between >1.2 and ≤1.35)”.
